According to patent EP0338372A2, “Solubilized pro-drugs” (AMERICAN CYANAMID COMPANY, priority 1988, dated 1989):

Tested on: lymphocytic leukemia P388
Assay: Lymphocytic leukemia P388 test
Format: in vivo, BDF1 mice
[1] = Dose 50 mg/kg intraperitoneally on days 1, 5 and 9
[2] = Dose 200 mg/kg intraperitoneally on days 1, 5 and 9
[3] = Dose 12.5 mg/kg intraperitoneally on days 1, 5 and 9
[4] = Dose 3.12 mg/kg intraperitoneally on days 1, 5 and 9
[5] = Dose 12.25 mg/kg intraperitoneally on days 1, 5 and 9
[6] = Dose 25 mg/kg intraperitoneally on days 1, 5 and 9
[7] = Dose 100 mg/kg intraperitoneally on days 1, 5 and 9
[8] = Dose 6.25 mg/kg intraperitoneally on days 1, 5 and 9

Compound	Median Survival [1] [days]	T/C x 100 % [1] [%]	Median Survival [2] [days]	T/C x 100 % [2] [%]	Median Survival [3] [days]	T/C x 100 % [3] [%]	Median Survival [6] [days]	T/C x 100 % [6] [%]	also measured
Cc1ccc(S(=O)(=O)N2CCN=C2NN=Cc2c3ccccc3c(C=NNC3=NCCN3S(=O)(=O)c3ccc(C)cc3)c3ccccc23)cc1 [2,2-[9,10-Anthracenediylbis(methylidyne-1-hydrazinyl-2-ylidene)]bis[4,5-dihydro-1-[(4-methylphenyl)sulfonyl]-1H-imidazole]]	14	127	14	127					
O=CN1CCN=C1N(C=O)N=Cc1c2ccccc2c(C=NN(C=O)C2=NCCN2C=O)c2ccccc12 [2,2'-[9,10-Anthracenediylbis[methylidyne(1-formyl-1-hydrazinyl-2-ylidene)]]bis[4,5-dihydro-1H-imidazole-1-carboxaldehyde]]	11	110	11.5	115	10.5	105			
O=C(c1ccco1)N1CCN=C1N(N=Cc1c2ccccc2c(C=NN(C(=O)c2ccco2)C2=NCCN2C(=O)c2ccco2)c2ccccc12)C(=O)c1ccco1 [2,2'-(9,10-Anthracenediyldimethylidyne)bis[1-[1-(2-furanylcarbonyl)-4,5-dihydro-1H-imidazol-2-yl]hydrazide] of 2-furancarboxylic acid]			12	120					
O=C(O)CCCC(=O)N1CCN=C1NN=Cc1c2ccccc2c(C=NNC2=NCCN2C(=O)CCCC(=O)O)c2ccccc12 [2,2-[9,10-Anthracenedlylbis(methylidyne-1-hydrazinyl-2-ylidene)]bis[4,5-dihydro-delta-oxo-1H-imidazole-1-pentanoic Acid]]	19	173	23	209	18	164			Median Survival [4]: 15.5 days; T/C x 100 % [4]: 141%
O=C(c1c(F)c(F)c(F)c(F)c1F)N1CCN=C1N(N=Cc1c2ccccc2c(C=NN(C(=O)c2c(F)c(F)c(F)c(F)c2F)C2=NCCN2C(=O)c2c(F)c(F)c(F)c(F)c2F)c2ccccc12)C(=O)c1c(F)c(F)c(F)c(F)c1F [2,2'-(9,10-Anthracenediyldimethylidyne)bis[1-[4,5-dihydro-1-(pentafluoro-1H-imidazol-2-yl)hydra-zide] of pentafluorobenzoic acid]			12	109					
CCCCCCc1ccc(C(=O)N2CCN=C2N(N=Cc2c3ccccc3c(C=NN(C(=O)c3ccc(CCCCCC)cc3)C3=NCCN3C(=O)c3ccc(CCCCCC)cc3)c3ccccc23)C(=O)c2ccc(CCCCCC)cc2)cc1 [2,2'-(9,10-Anthracenediyldimethylidyne)bis[1-[1-(4-hexylbenzoyl)-4,5-dihydro-1H-imidazol-2-yl]hydra-zide] of 4-hexylbenzoic acid]			14	127					
CCCC(=O)N1CCN=C1N(N=Cc1c2ccccc2c(C=NN(C(=O)CCC)C2=NCCN2C(=O)CCC)c2ccccc12)C(=O)CCC [2,2'-(9,10-Anthracenediyldimethylidyne)bis[1-[4,5-dihydro-1-(1-oxobutyl)-1H-imidazol-2-yl]hydra-zide] of butanoic acid]			11.5	105					
CC(C)(C)OC(=O)N1CCN=C1NN=Cc1c2ccccc2c(C=NNC2=NCCN2C(=O)OC(C)(C)C)c2ccccc12 [2,2-(9,10-Anthracenediylbis(methylidyne-1-hydrazinyl-2-ylidene)]bis[4,5-dihydro]-1H-imidazole-1-carboxylic Acid], Bis(1,1-dimethylethyl) Ester]	31.5	274					22	191	Median Survival [5]: 17.5 days; T/C x 100 % [5]: 152%
COc1ccc(C(=O)N2CCN=C2N(N=Cc2c3ccccc3c(C=NN(C(=O)c3ccc(OC)cc3)C3=NCCN3C(=O)c3ccc(OC)cc3)c3ccccc23)C(=O)c2ccc(OC)cc2)cc1 [2,2'-(9,10-Anthracenediyldimethylidyne)bis[1-[4,5-dihydro-1-(4-methoxybenzoyl)-1H-imidazol-2-yl] hydrazide] of 4-methoxybenzoic acid]			16	139					
O=CN1CCN=C1NN=Cc1c2ccccc2c(C=NNC2=NCCN2C=O)c2ccccc12 [2,2-[9,10-Anthracenediylbis(methylidyne-1-hydrazinyl-2-ylidene)]bis[4,5-dihydro]-1H-imidazole-1-carboxaldehyde]	12	120	12	120					
O=C(c1ccc2ccccc2c1)N1CCN=C1N(N=Cc1c2ccccc2c(C=NN(C(=O)c2ccc3ccccc3c2)C2=NCCN2C(=O)c2ccc3ccccc3c2)c2ccccc12)C(=O)c1ccc2ccccc2c1 [2,2'-(9,10-Anthracenediyldimethylidyne)bis[1-[4,5-dihydro-1-(2-naphthalenylcarbonyl)-1H-imidazol-2-yl]-hydrazide] of 2-naphthoic acid]									Median Survival [7]: 12 days; T/C x 100 % [7]: 104%
N#Cc1ccc(C(=O)N2CCN=C2N(N=Cc2c3ccccc3c(C=NN(C(=O)c3ccc(C#N)cc3)C3=NCCN3C(=O)c3ccc(C#N)cc3)c3ccccc23)C(=O)c2ccc(C#N)cc2)cc1 [2,2'-(9,10-Anthracenediyldimethylidyne)bis[1-[1-(4-cyanobenzoyl)-4,5-dihydro-1H-imidazol-2-yl] hydrazide] of 4-cyanobenzoic acid]	12.5	114	14.5	132			12	109	Median Survival [7]: 14.5 days; T/C x 100 % [7]: 132%
O=C(c1cccc([N+](=O)[O-])c1)N1CCN=C1N(N=Cc1c2ccccc2c(C=NN(C(=O)c2cccc([N+](=O)[O-])c2)C2=NCCN2C(=O)c2cccc([N+](=O)[O-])c2)c2ccccc12)C(=O)c1cccc([N+](=O)[O-])c1 [2,2'(9,10-Anthracenediyldimethylidyne)bis[1-[4,5-dihydro-1-(3-nitrobenzoyl)-1H-imidazol-2-yl]hydra-zide] of 3-nitrobenzoic acid]	16.5	138	21.5	179	13.5	113	18	150	Median Survival [4]: 16 days; T/C x 100 % [4]: 133%; Median Survival [8]: 16 days; T/C x 100 % [8]: 133%; Median Survival [7]: 18 days; T/C x 100 % [7]: 150%
[9,10-Anthracenedlylbis(methylidyne-1-hydrazinyl-2-ylidene (4,5-dihydro-1H-imidazol-2,1-diyl)]]-phosphonic Acid Hydroiodide									Median Survival (mouse, in vivo, ip, 0.4 mg/kg): 21 days; T/C x 100 % (mouse, in vivo, ip, 0.4 mg/kg): 191%; Median Survival (mouse, in vivo, ip, 0.8 mg/kg): 19 days; T/C x 100 % (mouse, in vivo, ip, 0.8 mg/kg): 173%; Median Survival (mouse, in vivo, ip, 1.6 mg/kg): 24.5 days; T/C x 100 % (mouse, in vivo, ip, 1.6 mg/kg): 223%; Median Survival (mouse, in vivo, ip, 3.2 mg/kg): 24 days; T/C x 100 % (mouse, in vivo, ip, 3.2 mg/kg): 218%; Median Survival (mouse, in vivo, ip, 6.3 mg/kg): 22 days; T/C x 100 % (mouse, in vivo, ip, 6.3 mg/kg): 200%; Median Survival (mouse, in vivo, ip, 12.5 mg/kg): 53.5 days; T/C x 100 % (mouse, in vivo, ip, 12.5 mg/kg): 486%; Median Survival (mouse, in vivo, ip, 25 mg/kg): >60 days; T/C x 100 % (mouse, in vivo, ip, 25 mg/kg): >545%
O=C(O)C1CCCCC1C(=O)N1CCN=C1NN=Cc1c2ccccc2c(C=NNC2=NCCN2C(=O)C2CCCCC2C(=O)O)c2ccccc12 (stereo not drawn) [2,2-[9,10-Anthracenediylbis[methylidyne-1-hydrazinyl-2-ylidene(4,5-dihydro-1H-imidazole-2,1-diyl)-carbonyl]]biscyclohexanecarboxylic Acid]					16	145	18	164	Median Survival [8]: 13.5 days; T/C x 100 % [8]: 123%
CC(=O)N1CCN=C1NN=Cc1c2ccccc2c(C=NNC2=NCCN2C(C)=O)c2ccccc12 [2,2'-[9,10-Anthracenediylbis(methylidyne-1-hydrazinyl-2-ylidene)]bis[1-acetyl-4,5-dihydro-1H-imidazole]	11	110			10.5	105	10.5	105	Median Survival [8]: 10.5 days; T/C x 100 % [8]: 105%
